# According to paper PMC6271849, “Quantitative Analysis of the Flavonoid Glycosides and Terpene Trilactones in the Extract of Ginkgo biloba and Evaluation of Their Inhibitory Activity towards Fibril Formation of β-Amyloid Peptide” (Molecules, 2014):
# Molecular target: T1, amyloid β peptide (Aβ42) (Homo sapiens, UniProt P05067)
# T1 construct: gene APP; Aβ42 peptide
# Assay: biochemical
# T1 sequence (P05067 672-713 limits assumed): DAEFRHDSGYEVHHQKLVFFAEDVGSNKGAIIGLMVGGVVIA
row,SMILES,IC50 [µM]
1,"C[C@@H]1O[C@@H](Oc2c(-c3ccc(O)c(O)c3)oc3cc(O)cc(O)c3c2=O)[C@H](O[C@@H]2O[C@H](COC(=O)/C=C/c3ccc(O)cc3)[C@@H](O)[C@H](O)[C@H]2O)[C@H](O)[C@H]1O [compound 6, quercetin 3-O-α-(6′′′-p-coumaroylglucopyranosyl-β-1,2-rhamnopyranoside)]",32.6 ± 4.83
2,"C[C@@H]1O[C@@H](OC[C@H]2O[C@@H](Oc3c(-c4ccc(O)c(O)c4)oc4cc(O)cc(O)c4c3=O)[C@H](O)[C@@H](O)[C@@H]2O)[C@H](O)[C@H](O)[C@H]1O [compound 1, quercetin 3-O-β-D-rutinoside]",33 ± 4.84
3,"C[C@@H]1O[C@@H](Oc2c(-c3ccc(O)c(O)c3)oc3cc(O)cc(O)c3c2=O)[C@H](O[C@@H]2O[C@H](CO)[C@@H](O)[C@H](O)[C@H]2O)[C@H](O)[C@H]1O [compound 2, quercetin 3-O-α-L-(β-D-glucopyranosyl)-(1,2)-rhamnopyranoside]",67.1 ± 11.7
